According to patent US9550989B2, “Rational design of microRNA-siRNA chimeras for multi-functional target suppression” (Washington University, priority 2013, dated 2017):

Experiments:
Format in all cases: cell-based, human
HCT116 cells = assay: Flow cytometry of cisplatin-induced cell death (sub-G1, PI staining); conditions: cisplatin 50 μM
Procedure: (§1) FIG. 7 depicts images and graphs showing functional characterization of aiR-9 on cell motility and cell death. […] One representative microscope image from each assay is presented here. (B) Impact of aiR-9 on cell death. TP53 deficiency renders HCT116 cells resistance to cisplatin-induced cell death. HCT116 cells and HCT116 p53^−/− cells were treated with cisplatin (50 μM) and cell death was determined as sub-G1 population by flow cytometry analysis after DNA PI staining. Furthermore, HCT116 cells were transfected with negative control RNA, aiR-9-2 or miR-9 individually followed by cisplatin treatment, and then analyzed by flow cytometry for cell death with PI staining.
HCT116 and HCT116 p53^−/− cells were cultured in DMEM with 10% FBS. Cisplatin, DNase-free RNase and Propidum Iodide (PI) were purchased from Sigma. After treatment with cisplatin (50 μM), all cells (both floating and attached) were collected, washed once with DPBS, and then fixed with 70% ethanol on ice for at least 30 minutes. Fixed cells were washed twice with DPBS and then stained with PI solution [PI (25 μg/ml) and DNase-free RNase (100 μg/ml) diluted in PBS] at room temperature for 1 hour avoiding light exposure. Data were acquired by BD Aris FACS and analyzed using Flowing Software 2 version 2.5.0 (Finland).

TP53 = assay: Real-time RT-PCR of target mRNA; conditions: HeLa cells
Text: FIG. 6 depicts sequences and a graph showing design and validation of aiRNA-9. (A) Sequences of three aiR-9 RNAs. […] The seed regions are underlined.

HeLa cells = assay: Transwell migration assay; conditions: transwell migration; for promotion of cell motility as compared to the negative control: increase by %; for cell mobility on average as compared to the control: increased to % of control
Procedure: (A) Transwell migration assays to assess changes in cell motility. (B) MTS assays to assess changes in cell proliferation.
as §1
Cultured cells were resuspended and washed with PBS buffer. Fifty thousand cells in 100 μL serum-free medium were added to the upper chamber of each Transwell (24-well insert with 8 um pore size from Costar). The lower chamber was filled with 600 μL medium containing 10% bovine serum. Cells were incubated for 6 h and cells on top of the membrane were removed with a cotton-tipped swab. Cells that had migrated through the membrane were fixed and stained with Hema-3 (Fisher Scientific) for counting.

| Substance | cisplatin-induced cell death (sub-G1 cell population) (HCT116 cells) | suppression of TP53 expression (TP53) | promotion of cell motility as compared to the negative control (HeLa cells) [%] | cell mobility on average as compared to the control (HeLa cells) [%] |
| --- | --- | --- | --- | --- |
| aiR-9-2: aiRNA with miR-9 seed and TP53 siRNA homology, SEQ ID NO:11 UCUUUGGUUGGGGAGAGGAGC (listed as RNA, chemistry not given here) | drastic suppression of cisplatin-induced cell death | effectively suppress | 57 | 157 |
| miR-9: natural miRNA, SEQ ID NO:9 UCUUUGGUUAUCUAGCUGUAUGA (listed as RNA, chemistry not given here) [reference compound] | – | – | 44 | 144 |
